According to publication PMC11484861 (Nature Communications, 2024):

System: SARS-CoV-2 M protein level
Type: cell-based, human

| SMILES | IMβ3-5-promoted degradation of M, VP2 and PB1-F2 | decrease in M protein levels induced by SQSTM1 |
| --- | --- | --- |
| CCN(CC)CCCC(C)Nc1ccnc2cc(Cl)ccc12 (stereo not drawn) [CQ, chloroquine] | blocked | rescued |
| COC[C@H]1OC(=O)c2coc3c2[C@@]1(C)C1=C(C3=O)[C@@H]2CCC(=O)[C@@]2(C)C[C@H]1OC(C)=O [wortmannin] | – | rescued |
